Read-outs that look alike come from different tables or passages of the source.
Molecular target: T1, human KSP motor domain (KSP(367H)) (Homo sapiens, UniProt P52732)
T1 construct: were used to amplify the motor domain and the neck linker region; made in house; host or cells: E. coli BL21 (DE3), pRSETa
T1 sequence (P52732 18-359 limits assumed): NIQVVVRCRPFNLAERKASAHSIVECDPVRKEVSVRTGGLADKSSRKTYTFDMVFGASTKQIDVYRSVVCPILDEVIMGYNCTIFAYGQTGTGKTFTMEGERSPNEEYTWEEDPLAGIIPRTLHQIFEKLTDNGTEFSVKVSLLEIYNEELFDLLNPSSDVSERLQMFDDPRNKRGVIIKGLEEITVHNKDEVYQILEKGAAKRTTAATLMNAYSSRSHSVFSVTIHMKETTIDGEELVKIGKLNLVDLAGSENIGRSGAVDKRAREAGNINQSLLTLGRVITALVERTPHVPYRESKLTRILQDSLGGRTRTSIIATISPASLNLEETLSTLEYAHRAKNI
Assay: Kinesin ATPase In Vitro Assay
Type: biochemical
Procedure: I. Kinesin ATPase In Vitro Assay
The N-terminal primer 5′-[…] (SEQ. ID. NO.: 1) and the C-terminal primer 5′-[…] […] […] The PCR products were digested with AseI and XhoI, ligated into the NdeI/XhoI digestion product of pRSETa (Invitrogen) and transformed into E. coli BL21 (DE3).
Cells were grown at 37° C. to an OD600 of 0.5. After cooling the culture to room temperature expression of KSP was induced with 100 μM IPTG and incubation was continued overnight. Cells were pelleted by centrifugation and washed once with ice-cold PBS. Pellets were flash-frozen and stored −80° C.
Cell pellets were thawed on ice and resuspended in lysis buffer (50 mM K-HEPES, pH 8.0, 250 mM KCl, 0.1% Tween, 10 mM imidazole, 0.5 mM Mg-ATP, 1 mM PMSF, 2 mM benzimidine, 1× complete protease inhibitor cocktail (Roche)). Cell suspensions were incubated with 1 mg/ml lysozyme and 5 mM β-mercaptoethanol on ice for 10 minutes, followed by sonication (3×30 sec). All subsequent procedures were performed at 4° C. Lysates were centrifuged at 40,000×g for 40 minutes. Supernatants were diluted and loaded onto an SP Sepharose column (Pharmacia, 5 ml cartridge) in buffer A (50 mM K-HEPES, pH 6.8, 1 mM MgCl2, 1 mM EGTA, 10 μM Mg-ATP, 1 mM DTT) and eluted with a 0 to 750 mM KCl gradient in buffer A. Fractions containing KSP were pooled and incubated with Ni-NTA resin (Qiagen) for one hour. The resin was washed three times with buffer B (Lysis buffer minus PMSF and protease inhibitor cocktail), followed by three 15-minute incubations and washes with buffer B. Finally, the resin was incubated and washed for 15 minutes three times with buffer C (same as buffer B except for pH 6.0) and poured into a column. KSP was eluted with elution buffer (identical to buffer B except for 150 mM KCl and 250 mM imidazole). KSP-containing fractions were pooled, made 10% in sucrose, and stored at −80° C.
Microtubules are prepared from tubulin isolated from bovine brain. Purified tubulin (>97% MAP-free) at 1 mg/ml is polymerized at 37° C. in the presence of 10 μM paclitaxel, 1 mM DTT, 1 mM GTP in BRB80 buffer (80 mM K-PIPES, 1 mM EGTA, 1 mM MgCl2 at pH 6.8). The resulting microtubules are separated from non-polymerized tubulin by ultracentrifugation and removal of the supernatant. The pellet, containing the microtubules, is gently resuspended in 10 μM paclitaxel, 1 mM DTT, 50 μg/ml ampicillin, and 5 μg/ml chloramphenicol in BRB80.
The kinesin motor domain is incubated with microtubules, 1 mM ATP (1:1 MgCl2: Na-ATP), and compound at 23° C. in buffer containing 80 mM K-HEPES (pH 7.0), 1 mM EGTA, 1 mM DTT, 1 mM MgCl2, and 50 mM KCl. […] Free phosphate from the ATP hydrolysis reaction is measured via a quinaldine red/ammonium molybdate assay by adding a […] of quench C (e.g., to a mixture of 40 μl reaction volume+40 μl stop buffer is then added 120 μl quench C). […] Quench C is a 2:1 ratio of quench A:quench B The reaction is incubated for 5-10 minutes at 23° C., and the absorbance of the phospho-molybdate complex is measured at 540 nm.

[1] = kinesin motor domain with microtubules, 1 mM ATP, 23° C., read-out: IC50

IC50 [µM]	SMILES	IC50 [1] [µM]
	CON(C)C(=O)C1=NN(c2cc(C)ccc2F)CC1(CCCO)c1ccccc1 (racemic) [Compound 2-1, (±)-1-(2-fluoro-5-methylphenyl)-4-(3-hydroxypropyl)-N-methoxy-N-methyl-4-phenyl-4,5-dihydro-1H-pyrazole-3-carboxamide]	≤ 50
≤ 50	CC(=O)C1=NN(c2cc(C)ccc2F)CC1(CCCN(C)C)c1ccccc1 (racemic) [Compound 2-3, (±)-(1-[4-[3-(dimethylamino)propyl]-1-(2-fluoro-5-methylphenyl)-4-phenyl-4,5-dihydro-1H-pyrazol-3-yl]ethanone]	
	CC(=O)C1=NN(c2cccc(F)c2)CC1c1ccccc1 (racemic) [Compound 3-5, (±)-1-[1-(3-fluorophenyl)-4-phenyl-4,5-dihydro-1H-pyrazol-3-yl]ethanone]	≤ 50
	CCOC(=O)C1=NN(c2cc(F)ccc2F)C(N2CCOCC2)C1c1ccccc1 (racemic) [Compound 44, (±)-Ethyl 1-(2,5-difluorophenyl)-5-morpholin-4-yl-4-phenyl-4,5-dihydro-1H-pyrazole-3-carboxylate]	≤ 50
	CC(=O)c1nn(-c2cc(F)ccc2F)cc1-c1ccccc1 [Compound 4-7, 1-[1-(2,5-difluorophenyl)-4-phenyl-1H-pyrazol-3-yl]ethanone]	≤ 50

Source: patent US20080045492A1, “Mitotic Kinesin Inhibitors” (priority 2004, published 2008)
